# Measurements reported in PMC7377239, “Cardiovascular Effects of Polychlorinated Biphenyls and Their Major Metabolites” (Environmental Health Perspectives, 2020).
# Where two headings read alike, the source gives them in different places.
# Assays:
# [1] = system: HUVECs; assay: High-content imaging cytotoxicity in HUVECs, 24 h; format: cell-based, human; details: Homo sapiens, HUVEC, 24 h, HUVECs; for viability at 0.01 µM / activity at 0.01 µM: concentration 0.01 µM; for viability at 0.01 µM / activity at 0.01 µM / viability at 0.1 µM / activity at 0.1 µM / viability at 1 µM / activity at 1 µM / viability at 10 µM / activity at 10 µM / viability at 100 µM / activity at 100 µM: 0.00 µM = 100.00; for viability at 0.1 µM / activity at 0.1 µM: concentration 0.10 µM; for viability at 1 µM / activity at 1 µM: concentration 1.00 µM; for viability at 10 µM / activity at 10 µM: concentration 10.00 µM; for viability at 100 µM / activity at 100 µM: concentration 100.00 µM; for minimal effective concentration: MAX 100.00
# In short: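 Read-out: multiwavelength high-content imaging of Hoechst 33342, MitoTracker Orange and calcein AM after 24 h compound exposure of confluent HUVEC monolayers. POD values were set using a one-SD cutoff from vehicle (0.5% DMSO) means; with no concentration–response, 100μM was assigned as no observable adverse effect level.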
# [2] = system: iCell cardiomyocytes (human iPSC-derived cardiomyocytes); assay: High-content imaging of cytotoxicity and mitochondrial integrity in iPSC-CMs; format: cell-based; details: Homo sapiens, Cardiomyocyte; for viability at 0.01 µM / activity at 0.01 µM / viability at 0.1 µM / activity at 0.1 µM / viability at 1 µM / activity at 1 µM / viability at 10 µM / activity at 10 µM / viability at 100 µM / activity at 100 µM: 0.00 µM = 100.00; for viability at 0.1 µM / activity at 0.1 µM: 0.10 µM
# In short: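 Cardiomyocytes grown on gelatinized 384-well plates received fresh medium on the experiment day and were then exposed to chemicals at 0.01–100μM. Nuclei and mitochondria were labeled with Hoechst 33342 and MitoTracker™ Orange, then fixed, and imaged on an ImageXpress® Micro Confocal system. Four-parameter logistic concentration–response fits in R, with a one-standard-deviation vehicle cutoff, gave point-of-departure values.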
# [3] = 24 hr, read-out: huvec.cyto.24hr
# [4] = 24 hr, read-out: huvec.mito.24hr
# [5] = 24 hr, read-out: huvec.mitoint.24hr
# [6] = 24 hr, read-out: huvec.nma.24hr
# [7] = 24 hrs, read-out: huvec.tc.24hrs
# [8] = 1.5 h, 90min, read-out: cm.cam.90min
# [9] = 1.5 h, 90min, read-out: cm.mii.90min
# [10] = 1.5 h, 90min, read-out: cm.mito.90min
# [11] = 1.5 h, 90min, read-out: cm.tc.90min
# [12] = 24 h, 24hrs, read-out: cm.cam.24hrs
# [13] = 24 h, 24hrs, read-out: cm.mii.24hrs
# [14] = 24 h, 24hrs, read-out: cm.mito.24hrs
# [15] = 24 h, 24hrs, read-out: cm.tc.24hrs
structure (smiles),measurement,setting,value
Clc1ccc(-c2cc(Cl)c(Cl)c(Cl)c2)cc1Cl [PCB126],viability at 0.01 µM,[1]; [3],86.8%
same,activity at 0.01 µM,[1]; [4],85.6%
same,activity at 0.01 µM,[1]; [5],89%
same,activity at 0.01 µM,[1]; [6],94.2%
same,viability at 0.1 µM,[1]; [3],93.4%
same,activity at 0.1 µM,[1]; [4],92%
same,activity at 0.1 µM,[1]; [5],79.3%
same,activity at 0.1 µM,[1]; [6],93.5%
same,viability at 1 µM,[1]; [3],93.8%
same,activity at 1 µM,[1]; [4],92.5%
same,activity at 1 µM,[1]; [5],83.6%
same,activity at 1 µM,[1]; [6],95.2%
same,viability at 10 µM,[1]; [3],91.2%
same,activity at 10 µM,[1]; [4],89.7%
same,activity at 10 µM,[1]; [5],74.2%
same,activity at 10 µM,[1]; [6],93%
same,viability at 100 µM,[1]; [3],57.1%
same,activity at 100 µM,[1]; [4],55%
same,activity at 100 µM,[1]; [5],96.7%
same,activity at 100 µM,[1]; [6],84.5%
same,minimal effective concentration,"[1]; 24 hr, read-out: huvec.cyto.24hr POD",5.33 µM
same,minimal effective concentration,"[1]; 24 hr, read-out: huvec.mito.24hr POD",100 µM
same,minimal effective concentration,"[1]; 24 hr, read-out: huvec.mitoint.24hr POD",100 µM
same,minimal effective concentration,"[1]; 24 hr, read-out: huvec.nma.24hr POD",100 µM
same,viability at 0.01 µM,[1]; [7],86.9%
same,viability at 0.1 µM,[1]; [7],93.4%
same,viability at 1 µM,[1]; [7],93.8%
same,viability at 10 µM,[1]; [7],91.4%
same,viability at 100 µM,[1]; [7],57.3%
same,minimal effective concentration,"[1]; 24 hrs, read-out: huvec.tc.24hrs POD",5.33 µM
same,viability at 0.01 µM,[2]; [8],107%
same,activity at 0.01 µM,[2]; [9],97.6%
same,activity at 0.01 µM,[2]; [10],108%
same,viability at 0.01 µM,[2]; [11],107%
same,viability at 0.1 µM,[2]; [8],101%
same,activity at 0.1 µM,[2]; [9],106%
same,activity at 0.1 µM,[2]; [10],101%
same,viability at 0.1 µM,[2]; [11],101%
same,viability at 1 µM,[2]; [8],97.4%
same,activity at 1 µM,[2]; [9],111%
same,activity at 1 µM,[2]; [10],97.2%
same,viability at 1 µM,[2]; [11],97.2%
same,viability at 10 µM,[2]; [8],97.1%
same,activity at 10 µM,[2]; [9],103%
same,activity at 10 µM,[2]; [10],96.8%
same,viability at 10 µM,[2]; [11],96.8%
same,viability at 100 µM,[2]; [8],97.2%
same,activity at 100 µM,[2]; [9],111%
same,activity at 100 µM,[2]; [10],96.7%
same,viability at 100 µM,[2]; [11],96.7%
same,minimal effective concentration,"[2]; 1.5 h, 90min, read-out: cm.cam.90min POD",100 µM
same,minimal effective concentration,"[2]; 1.5 h, 90min, read-out: cm.mii.90min POD",100 µM
same,minimal effective concentration,"[2]; 1.5 h, 90min, read-out: cm.mito.90min POD",100 µM
same,minimal effective concentration,"[2]; 1.5 h, 90min, read-out: cm.tc.90min POD",100 µM
same,viability at 0.01 µM,[2]; [12],94.2%
same,activity at 0.01 µM,[2]; [13],109%
same,activity at 0.01 µM,[2]; [14],94%
same,viability at 0.01 µM,[2]; [15],93.7%
same,viability at 0.1 µM,[2]; [12],97.6%
same,activity at 0.1 µM,[2]; [13],80.7%
same,activity at 0.1 µM,[2]; [14],96.1%
same,viability at 0.1 µM,[2]; [15],98%
same,viability at 1 µM,[2]; [12],101%
same,activity at 1 µM,[2]; [13],103%
same,activity at 1 µM,[2]; [14],103%
same,viability at 1 µM,[2]; [15],101%
same,viability at 10 µM,[2]; [12],90.4%
same,activity at 10 µM,[2]; [13],74%
same,activity at 10 µM,[2]; [14],88.5%
same,viability at 10 µM,[2]; [15],90.2%
same,viability at 100 µM,[2]; [12],46.6%
same,activity at 100 µM,[2]; [13],101%
same,activity at 100 µM,[2]; [14],35.6%
same,viability at 100 µM,[2]; [15],48.4%
same,minimal effective concentration,"[2]; 24 h, read-out: cm.cam.24hrs POD",7.03 µM
same,minimal effective concentration,"[2]; 24 h, read-out: cm.mii.24hrs POD",100 µM
same,minimal effective concentration,"[2]; 24 h, read-out: cm.mito.24hrs POD",7.54 µM
same,minimal effective concentration,"[2]; 24 h, read-out: cm.tc.24hrs POD",6.48 µM
